Laboratory results from patent US20030211636A1, “Point of care test for measurement of therapeutic drug levels” (Pfizer Inc., priority 2002, published 2003).
Like-named read-outs stand apart in the source and are kept apart here.

Experiments:
[1] = Compound 122 saliva concentrations in healthy human subjects after oral administration (HPLC-MS/MS); type: in vivo; conditions: for concentration at 2 h / concentration at 4 h / concentration at 8 h / concentration at 24 h / concentration at 0 h: human, saliva, po
Experimental: (§1) Stock solutions of Compound 122-HCl salt and internal standard 2-difluoromethoxy-5-trifluoromethoxy-benzyl)-(2-phenyl-piperidin-3-yl)-amine] HCl salt (hereinafter referred to as IS, for internal standard) were prepared at concentrations of 100 μg/ml in 1:1 Methanol/Water and stored at −20° C. […] Serial dilutions of the stock solutions were prepared in 1:1 Methanol/Water as needed. Standard curve samples were freshly prepared using serial dilutions of stock so that equivalent additions produced 0.1, 0.2, 0.5, 2, 10, and 50 ng/ml solutions in Control Human Saliva (CHS). Quality control samples were prepared from a different stock solution similarly at 0.15, 5, and 40 ng/ml in CHS.
Aliquots (50 μl) of Human saliva, 200 μl of 0.1% Ammonium Hydroxide and 50 μl of 2.0 ng/ml IS were added, in sequence, to one well of a 96 well block. The plate was centrifuged briefly to consolidate the above contents and placed onto a TomTec Quadra 96. An automatic program was used that performs the following steps: conditions a Waters brand 10 mg Oasis HLB plate with 100 μl Methanol and then 200 μl 50/50 Methanol/Water (containing 2% v/v Ammonium Hydroxide), transfers the 300 μl of sample to the plate, washes the plate with 400 μl of 50/50 Methanol/Water (containing 2% v/v Ammonium Hydroxide) and then elutes the drug and IS into a clean 96 deep well block with 200 μl of 70/30 Methanol/Water (containing 2% v/v Acetic Acid). The eluent was isolated, evaporated to dryness under a stream of Nitrogen, and reconstituted in 100 μl 60/40 Methanol/10 mM Ammonium Acetate (both containing 0.05% Formic Acid) and vortexed for approximately 30 seconds. The plate was then centrifuged for ˜1 minute at about 3000 RPM. Injection volumes introduced into HPLC system were typically […].
The mobile phase was a binary mixture (60/40) of Methanol and 10 mM Ammonium Acetate (both containing 0.05% Formic Acid). The analytical column was a Phenomenex LUNA Phenyl Hexyl, 5μ, 2.00×50 mm LC/MS column preceded by a 2.0 micron stainless steel precolumn filter. A Hewlett Packard 1100 series quaternary pump was used and a mobile phase flow rate of 0.30 ml/min was maintained. A CTC Analytics (LEAP) HTS PAL autosampler injected the 10 μl sample aliquots onto the column at approximately 3 minute intervals.
The analysis was performed on a Perkin Elmer SCIEX API 3000 triple quadrupole mass spectrometer operated in the positive ion mode. The effluent from the HPLC column was directly introduced into the TurbolonSpray ion source, which was operated at 1500V with a temperature of 375° C. and 6 L/sec nitrogen gas. Nitrogen nebulizer gas was set to 10 and curtain gas was set to 9. Analyte and IS responses were measured using multiple reaction monitoring (MRM). Protonated molecular ions for drug (m/z 381.4), and I.S. (m/z 417.1) were dissociated by collision with nitrogen. Collision gas (CAD) was set to 5 and a collision energy of 32 eV was used. Product ions at m/z 160.0 were monitored for both drug and IS runs.
Subjects were divided into three groups of six individuals: CYP2D6 extensive metabolizers (including one “intermediate” metabolizer), CYP2D6 extensive metabolizers receiving concurrent paroxetine as an inhibitor of CYP2D6 (also including one intermediate metabolizer), and CYP2D6 poor metabolizers. […] Saliva samples were collected on the first day of each study leg.
Samples were subjected to a solid phase extraction procedure followed by chromatography and analysis on a Sciex API3000 tandem quadrupole mass spectrometer.
Mean values were calculated in those cases in which half or greater of the individual values were >LLOQ. A value of zero was used in those cases wherein concentrations were <LLOQ. […] Cav is defined by AUC (0-24 hr)/24.

[2] = Stability of Compound 122 stock solution; type: physicochemical; conditions: HCl salt, 100 μg/ml in 1:1 Methanol/Water, stored at −20° C.
Experimental: as §1

[3] = 10 mg, EM + paroxetine, Day 1, 10 mg q.d. oral, read-out: Mean saliva concentration, EM + paroxetine, Mean ± SD
[4] = 10 mg, EM + paroxetine, Day 6, 10 mg b.i.d. oral, read-out: Mean saliva concentration, EM + paroxetine, Mean ± SD
[5] = 10 mg, EM, Day 1, 10 mg q.d. oral, read-out: Mean saliva concentration, EM, Mean ± SD
[6] = 10 mg, EM, Day 6, 10 mg b.i.d. oral, read-out: Mean saliva concentration, EM, Mean ± SD
[7] = 10 mg, PM, Day 1, 10 mg q.d. oral, read-out: Mean saliva concentration, PM, Mean ± SD
[8] = 10 mg, PM, Day 6, 10 mg b.i.d. oral, read-out: Mean saliva concentration, PM, Mean ± SD
[9] = 30 mg, EM + paroxetine, Day 11, 30 mg q.d. oral, read-out: Mean saliva concentration, EM + paroxetine, Mean ± SD
[10] = 30 mg, EM + paroxetine, Day 16, 30 mg b.i.d. oral, read-out: Mean saliva concentration, EM + paroxetine, Mean ± SD
[11] = 30 mg, EM, Day 11, 30 mg q.d. oral, read-out: Mean saliva concentration, EM, Mean ± SD
[12] = 30 mg, EM, Day 16, 30 mg b.i.d. oral, read-out: Mean saliva concentration, EM, Mean ± SD
[13] = 30 mg, PM, Day 11, 30 mg q.d. oral, read-out: Mean saliva concentration, PM, Mean ± SD
[14] = 30 mg, PM, Day 16, 30 mg b.i.d. oral, read-out: Mean saliva concentration, PM, Mean ± SD
[15] = 100 mg, EM + paroxetine, Day 21, 100 mg q.d. oral, read-out: Mean saliva concentration, EM + paroxetine, Mean ± SD
[16] = 100 mg, EM, Day 21, 100 mg q.d. oral, read-out: Mean saliva concentration, EM, Mean ± SD
[17] = 100 mg, PM, Day 21, 100 mg q.d. oral, read-out: Mean saliva concentration, PM, Mean ± SD

mean salivary Cav ([1]; 30 mg b.i.d., Cav = AUC (0-24 hr)/24): 4.04 ng/mL
serum Cav corresponding to salivary Cav ([1]; 30 mg b.i.d., salivary Cav divided by fu): 58 ng/mL
concentration at 2 h [1, 3]: 0.5 ± 0.462 ng/mL
concentration at 4 h [1, 3]: 0.632 ± 0.773 ng/mL
concentration at 8 h [1, 3]: 0.533 ± 0.722 ng/mL
concentration at 24 h [1, 3]: 0.192 ± 0.332 ng/mL
concentration at 0 h [1, 4]: 3.21 ± 5.09 ng/mL
concentration at 2 h [1, 4]: 1.92 ± 1.83 ng/mL
concentration at 4 h [1, 4]: 2.97 ± 2.16 ng/mL
concentration at 8 h [1, 4]: 5.68 ± 9.27 ng/mL
concentration at 24 h [1, 4]: 2.16 ± 1.27 ng/mL
concentration at 2 h [1, 5]: 0.545 ± 0.518 ng/mL
concentration at 4 h [1, 5]: 0.524 ± 0.293 ng/mL
concentration at 8 h [1, 5]: 0.313 ± 0.164 ng/mL
concentration at 0 h [1, 6]: 0.27 ± 0.454 ng/mL
concentration at 2 h [1, 6]: 0.541 ± 0.465 ng/mL
concentration at 4 h [1, 6]: 0.987 ± 0.915 ng/mL
concentration at 8 h [1, 6]: 0.805 ± 1.18 ng/mL
concentration at 24 h [1, 6]: 0.418 ± 0.426 ng/mL
concentration at 2 h [1, 7]: 0.517 ± 0.261 ng/mL
concentration at 4 h [1, 7]: 2.23 ± 1.06 ng/mL
concentration at 8 h [1, 7]: 2.31 ± 1.32 ng/mL
concentration at 24 h [1, 7]: 1.05 ± 0.558 ng/mL
concentration at 0 h [1, 8]: 2.93 ± 2.45 ng/mL
concentration at 2 h [1, 8]: 2.85 ± 2.18 ng/mL
concentration at 4 h [1, 8]: 4.69 ± 3.28 ng/mL
concentration at 8 h [1, 8]: 3.23 ± 2.8 ng/mL
concentration at 24 h [1, 8]: 5.51 ± 4.39 ng/mL
concentration at 0 h [1, 9]: 3.86 ± 1.57 ng/mL
concentration at 2 h [1, 9]: 5.98 ± 2.9 ng/mL
concentration at 4 h [1, 9]: 9.51 ± 3.07 ng/mL
concentration at 8 h [1, 9]: 6.3 ± 1.69 ng/mL
concentration at 24 h [1, 9]: 5.59 ± 2.28 ng/mL
concentration at 0 h [1, 10]: 6.16 ± 4.58 ng/mL
concentration at 2 h [1, 10]: 9.11 ± 5.4 ng/mL
concentration at 4 h [1, 10]: 10 ± 6 ng/mL
concentration at 8 h [1, 10]: 9.69 ± 4.74 ng/mL
concentration at 24 h [1, 10]: 9.67 ± 5.91 ng/mL
concentration at 0 h [1, 11]: 1.16 ± 1.81 ng/mL
concentration at 2 h [1, 11]: 3.07 ± 2.77 ng/mL
concentration at 4 h [1, 11]: 4.03 ± 4.1 ng/mL
concentration at 8 h [1, 11]: 3.18 ± 2.99 ng/mL
concentration at 24 h [1, 11]: 1.92 ± 3.13 ng/mL
concentration at 0 h [1, 12]: 2.44 ± 4.17 ng/mL
concentration at 2 h [1, 12]: 2.91 ± 2.49 ng/mL
concentration at 4 h [1, 12]: 4.57 ± 3.03 ng/mL
concentration at 8 h [1, 12]: 3.44 ± 3.67 ng/mL
concentration at 24 h [1, 12]: 5.08 ± 7.08 ng/mL
concentration at 0 h [1, 13]: 8.31 ± 6.8 ng/mL
concentration at 2 h [1, 13]: 6.96 ± 3.73 ng/mL
concentration at 4 h [1, 13]: 11.1 ± 8.5 ng/mL
concentration at 8 h [1, 13]: 14 ± 9.7 ng/mL
concentration at 24 h [1, 13]: 11.8 ± 9.3 ng/mL
concentration at 0 h [1, 14]: 15 ± 10.9 ng/mL
concentration at 2 h [1, 14]: 11.4 ± 6.5 ng/mL
concentration at 4 h [1, 14]: 12.9 ± 7.5 ng/mL
concentration at 8 h [1, 14]: 13.3 ± 9.9 ng/mL
concentration at 24 h [1, 14]: 21.5 ± 18.4 ng/mL
concentration at 24 h ([1]; 100 mg q.d., EM + paroxetine, Day 21, 100 mg q.d. oral, read-out: Mean saliva concentration, EM + paroxetine, Mean ± SD): 15.7 ± 8.8 ng/mL
concentration at 24 h ([1]; 100 mg q.d., EM, Day 21, 100 mg q.d. oral, read-out: Mean saliva concentration, EM, Mean ± SD): 12.5 ± 15.4 ng/mL
concentration at 24 h ([1]; 100 mg q.d., PM, Day 21, 100 mg q.d. oral, read-out: Mean saliva concentration, PM, Mean ± SD): 46.4 ± 27.1 ng/mL
concentration at 0 h [1, 15]: 12.2 ± 2.7 ng/mL
concentration at 2 h [1, 15]: 35.5 ± 24.7 ng/mL
concentration at 4 h [1, 15]: 44.1 ± 32.3 ng/mL
concentration at 8 h [1, 15]: 27.2 ± 10 ng/mL
concentration at 0 h [1, 16]: 6.94 ± 6.81 ng/mL
concentration at 2 h [1, 16]: 19.1 ± 16.6 ng/mL
concentration at 4 h [1, 16]: 21.2 ± 13.6 ng/mL
concentration at 8 h [1, 16]: 14.6 ± 8.6 ng/mL
concentration at 0 h [1, 17]: 32.9 ± 17.1 ng/mL
concentration at 2 h [1, 17]: 23.1 ± 12.1 ng/mL
concentration at 4 h [1, 17]: 46.2 ± 29.1 ng/mL
concentration at 8 h [1, 17]: 41.3 ± 26.2 ng/mL
stock solution stable over period [2]: ≥ 93 days
Compound: COc1ccc(OC(F)(F)F)cc1CNC1CCCNC1c1ccccc1 (centres unmarked) [Compound 122, (2-methoxy-5-trifluoromethoxy-benzyl)-(2-phenyl-piperidin-3-yl)-amine]
